Laboratory results published in paper PMC8699718, “A structurally conserved site in AUP1 binds the E2 enzyme UBE2G2 and is essential for ER-associated degradation” (PLoS Biology, 2021).
Ends that are not written are not given here.

B1: UBE2G2: ERAD ubiquitin-conjugating enzyme (E2); purified in vitro, N-terminally MYC-tagged in cells (protein)
chain: MAGTALKRLMAEYKQLTLNPPEGIVAGPMNEENFFEWEALIMGPEDTCFEFGVFPAILSFPLDYPLSPPKMRFTCEMFHPNIYPDGRVCISILHAPGDDPMGYESSAERWSPVQSVEKILLSVVSMLAEPNDESGANVDASKMWRDDREQFYKIAKQIVQKSLGL

Key:
UBE2G2 = test: CHX chase: UBE2G2 turnover in HT1080 AUP1 KO cells; format: cell-based, human; conditions: GFP fusion transfected with MYC-UBE2G2, HT1080 AUP1 KO, compared with GFP-SCR
Experimental: Fig 7 G2BR^AUP1 protects UBE2G2 from degradation. (A) Indicated cells were assessed for steady state levels and turnover of endogenous UBE2G2 by CHX chase. (B) Transcript levels of endogenous UBE2G2 in AUP1 KO cells compared to HT1080 as determined by qPCR. Mean and standard deviation from three independent experiments is shown. […] (D) AUP1 KO cells were transfected with plasmids encoding MYC-UBE2G2 and GFP fusions of either a scrambled G2BR (SCR), G2BR^gp78, or G2BR^AUP1, and the turnover of UBE2G2 was assessed. (E) Relative abundance of gp78 (left panel) and AUP1 (right panel) in HT1080 cells was determined by resolving indicated amounts (in pmoles) of purified GST-gp78 (aa 429 to 611) or GST-AUP1 (aa 61 to 410) fusions alongside approximately 1 × 10^4 cellular equivalents of cell lysate and immunoblotting with gp78 or AUP1 antibodies. For each antibody, the amount of immunoreactivity in the lysate was compared to a defined quantity of a GST fusion protein of gp78 or AUP1 spanning the epitope recognized by the probing antibody. […] The data underlying this figure can be found in S1 and S8 Data. aa, amino acid; AUP1, ancient ubiquitous protein 1; CHX, cycloheximide; G2BR, UBE2G2 Binding Region; KO, knockout; qPCR, quantitative polymerase chain reaction; WT, wild type. […]

[1] = system: NHK (Null Hong Kong variant of alpha1-antitrypsin); test: CHX chase: NHK degradation in HT1080 UBE2G2 KO cells; format: cell-based, human; conditions: re-expression in HT1080 UBE2G2 KO
Experimental: Fig 3 The AUP1–UBE2G2 interaction is required for ERAD. (A) Equimolar amounts of GST-AUP1 (aa 292 to 410) or GST were immobilized on glutathione beads and binding to the indicated in vitro translated ^35S-labeled E2s was assessed. Left panel is 5% of input used for binding. E2s are referred to by their unique alpha-numeric designation (e.g., UBE2G1 and UBE2J1). (B) HT1080 or UBE2G2 KO cells were transfected with INSIG-1-MYC and degradation assessed by CHX chase. […] (D) Cells were transfected with NHK-MYC and HA-ubiquitin and ubiquitination of NHK assessed following proteasome inhibition and IP (right panel). Left panel is 10% of total cell lysate used for IP, indicating no discernable change in total ubiquitination. (E) Levels of endogenous HRD1 were monitored by CHX chase in the indicated cell types. (F) Ubiquitination of endogenous HRD1 was assessed following IP with HRD1 antiserum. Arrow in upper panel indicates migration of unmodified HRD1. […]
Plasmid transfections were carried out using PolyFect (Qiagen, Germantown, MD, USA) or JetPrime (Polyplus, New York, NY, USA) reagents. […] Clarified lysates or immunoprecipitates were denatured by heating in NuPAGE LDS Sample Buffer with β-mercaptoethanol at 70°C for 10 minutes, resolved on Bis-Tris polyacrylamide gels in NuPAGE MES or MOPS SDS running buffer and analyzed by western blotting. […]

Row | Molecule | UBE2G2 degradation and steady state level (UBE2G2) | NHK degradation in UBE2G2 KO cells [1]
1 | GFP-G2BR^AUP1: GFP fusion of AUP1 aa 378 to 404 (SSWARQESLQERKQALYEYARRRFTER; also: GFP fusion; UniProt Q9Y679 378-404, looked up, fragment) | protected UBE2G2 from degradation and increased the steady state level of this E2 | 
2 | B1 |  | restored NHK degradation
